Experiments:
[1] = test system: calpain I in Molt-4 cells (α-spectrin breakdown products); test: Inhibition of calpain activation in intact Molt-4 cells (calpain-generated spectrin breakdown products); type: cell-based; conditions: Homo sapiens, calcium and ionophore (ionomycin), read-out: % Inhibition of BDPs (10 μM)
Calpain I = molecular target: T1, Calpain I (Homo sapiens, UniProt P07384); test: Inhibition and rate of inactivation of calpain I (Succ-Leu-Tyr-MNA hydrolysis); type: biochemical; conditions: mean of three or more independent analyses, corrected for substrate, k2 = kapp(1+[S]/Km), read-out: k2 (second order rate constant of inactivation), A = Calpain I
T1 construct: Calpain I was purified from human red blood cells; from tissue; host or cells: human red blood cells (packed, outdated)
T1 sequence (P07384 1-714): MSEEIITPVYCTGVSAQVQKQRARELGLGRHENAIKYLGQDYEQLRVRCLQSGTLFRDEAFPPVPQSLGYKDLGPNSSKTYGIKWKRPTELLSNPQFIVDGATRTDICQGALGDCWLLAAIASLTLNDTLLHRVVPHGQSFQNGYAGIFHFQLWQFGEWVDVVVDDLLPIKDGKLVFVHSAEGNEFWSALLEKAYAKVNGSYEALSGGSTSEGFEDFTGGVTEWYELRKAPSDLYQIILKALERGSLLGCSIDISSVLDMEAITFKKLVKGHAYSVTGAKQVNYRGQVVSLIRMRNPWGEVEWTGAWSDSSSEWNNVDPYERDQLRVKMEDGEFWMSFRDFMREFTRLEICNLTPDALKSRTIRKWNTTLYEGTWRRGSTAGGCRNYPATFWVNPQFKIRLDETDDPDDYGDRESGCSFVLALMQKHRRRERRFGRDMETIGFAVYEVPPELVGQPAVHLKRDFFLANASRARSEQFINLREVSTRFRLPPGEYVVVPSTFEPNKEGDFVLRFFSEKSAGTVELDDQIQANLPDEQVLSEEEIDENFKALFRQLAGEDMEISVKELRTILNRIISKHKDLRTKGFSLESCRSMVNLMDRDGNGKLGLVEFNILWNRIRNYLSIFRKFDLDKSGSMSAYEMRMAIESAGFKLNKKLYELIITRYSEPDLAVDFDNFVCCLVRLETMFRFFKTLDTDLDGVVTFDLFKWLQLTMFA
T1 sequence (P04632 1-268 partner): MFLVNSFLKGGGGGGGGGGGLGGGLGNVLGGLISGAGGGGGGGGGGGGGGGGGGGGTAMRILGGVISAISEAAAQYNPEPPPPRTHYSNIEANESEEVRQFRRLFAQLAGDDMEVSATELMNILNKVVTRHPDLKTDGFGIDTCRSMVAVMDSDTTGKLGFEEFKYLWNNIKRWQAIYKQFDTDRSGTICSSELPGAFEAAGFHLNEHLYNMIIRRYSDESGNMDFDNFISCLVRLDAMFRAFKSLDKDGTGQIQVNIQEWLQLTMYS
Protocol: To evaluate inhibitory activity of our compounds, stocks (40 times concentrated) of each compound to be tested were prepared in 100% anhydrous dimethyl sulfoxide (DMSO) and 5 μl of each inhibitor preparation was aliquoted into each of three wells of a 96 well plate. Calpain I was purified from human red blood cells using a modification of the method described by Lee, W. J. et al. (Biochem. Internatl. (1990)22(1): 163-171). Briefly, 3 units of packed outdated red blood cells were washed 3× by repeated centrifugation at 500 rpm for 10 minutes through 900 mls of 0.9% NaCl. Cells were lysed in 20 mM Tris/1 mM EDTA/1 mM EGTA/5 mM mercaptoethanol (Buffer A) and centrifuged for 1 hour at 12,000 rpm in a GSA rotor using a Sorval centrifuge. The supernatant was collected and applied to a DEAE-sepharose FF column equilibrated in Buffer A+25 mM NaCl. After washing the column in Buffer A+25 mM NaCl, the bound protein was eluted at 117 ml/hr with a 25 mM to 150 mM NaCl linear gradient in Buffer A collecting 200, 10 mL fractions. Two μl of every fifth fraction was applied to nitrocelluose using a dot blot apparatus and calpain containing fractions identified by Western analysis. For detection of calpain, nitrocellulose sheets were first blocked in 5% Blotto (5% Carnation instant milk/10 mM Tris/[…]150 mM NaCl) for 30 minutes, followed by incubation for 1 hour in antibody directed against Calpain I (rabbit anti-human calpain I polyclonal sera, 1:1000 dilution in 5% Blotto). After three 5 minutes washes in 10 mM Tris/150 mM NaCl/0.05% Tween 20 the nitrocellulose was incubated for 1 hour in secondary alkaline phosphatase conjugated antibody (Biorad Cat#170-6518 1:2000 in 5% Blotto). After three 5 minutes washes in 10 mM Tris/150 mM NaCl/0.05% Tween 20 and 1 wash in 10 mM Tris/150 mM NaCl the nitrocellulose was incubated for up to 2 hours in a colorimetric substrate solution (Biorad Alkaline Phosphatase Substrate conjugate kit, cat#170-6432). The reaction was stopped by washing in water. After fractions containing calpain, and those in between, were pooled, solid ammonium sulfate was added to achieve a 30% solution and the mixture stirred for 1 hour at 4° C. Following collection of the precipitate by centrifugation for 1 hour at 4° C. at 12K rpm in a GSA rotor, the supernatant was collected and brought to 45% in ammonium sulfate. After stirring for 1 hour at 4° C., centrifugation was repeated. The supernatant was discarded and the precipitate resuspended in approximately 7 mls and dialyzed overnight at 4° C. against Buffer A+50 mM NaCl. The sample was then applied to a S300 gel filtration column preequilibrated in Buffer A+50 mM NaCl, washed and eluted at a flow rate of 20 ml/hr, collecting 200, 4 ml fractions. The peak of calpain was determined by assaying aliquots of every fifth fraction for enzyme activity monitored by the hydrolysis of a fluorogenic dipeptide substrate as described below. The peak fractions were pooled and the enzyme preparation used to test compounds for inhibitory activity. As an alternate to enzyme isolated from tissue sources, recombinant human calpain I has also been used to monitor compounds for inhibitory activity.
The foregoing enzyme preparation was diluted into assay buffer (i.e., 50 mM Tris, 50 mM NaCl, 1 mM EDTA, 1 mM EGTA, and 5 mM β-mercaptoethanol, pH 7.5 including 0.2 mM Succ-Leu-Tyr-MNA) and 175 μl aliquoted into the same wells containing the independent inhibitor stocks as well as to positive control wells containing 5 μl DMSO, but no compound. To start the reaction, 20 μl of 50 mM CaCl2 in assay buffer was added to all wells of the plate, excepting three, which were used as background signal baseline controls. Substrate hydrolysis was monitored every 5 minutes for a total of 30 minutes using Flouroskan II (ex=340 nm; em=430 nm). Substrate hydrolysis in the absence of inhibitor was linear for up to 15 minutes. […]

α-chymotrypsin = molecular target: T2, α-chymotrypsin (Bos taurus, UniProt P00766); test: Inhibition of the serine protease α-chymotrypsin (Succ-Ala-Ala-Pro-Phe-AMC hydrolysis); type: biochemical; conditions: pH 7.5, 0.03 mM substrate
T2 construct: purchased Sigma Chem. Co. C-3142
Protocol: Additionally,because α-chymotrypsin is not a calcium sensitive enzyme and is constituitively active, following addition of inhibitor stocks to the 96 well plates, 100 ul of a 2 fold concentrated stock of enzyme in dilution buffer was first added and the reaction started by addition of 100 ul of a 2 fold concentrated stock of substrate in assay buffer. Substrate hydrolysis was monitored every 5 minutes up to 30 minutes using a Fluoroskan II ([…]).

kinact/KI (Calpain I): 4000 M⁻¹ s⁻¹ | inhibition at 10 µM (α-chymotrypsin): 91%
SMILES: CC(C)C[C@H](NC(=O)OCc1ccccc1)C(=O)N[C@@H](Cc1ccccc1)C(=O)COn1cnc2ccccc21 [Example 22, 1-[N-[N-Benzyloxycarbonyl-L-leucyl]-(3S)-4-phenyl-3-amino-2-oxybutyloxy]benzimidazole]
inhibition at 10 µM [1]: 61%

Source: patent US5658906A, “Cysteine protease and serine protease inhibitors” (Cephalon, Inc., priority 1996, dated 1997)
